Experimental data taken from the kinase profiling compilation of Christmann-Franck et al. (2016).
Where “and” joins values, the source holds several entries; their conditions need not be identical. Identical values can stand only once.

Assays:
Assay in all cases: radiometric filter-binding kinase assay, Kinase HotSpot
Settings in all cases: compound 0.5 µM; ATP 10 µM
SRPK3 (human) = SRPK3 (human) (UniProt Q9UPE1)
EPHB2 (human) = EPHB2 (human) (UniProt P29323)
IRAK4 (human) = IRAK4 (human) (UniProt Q9NWZ3)
Sequence of IRAK4 (human) (Q9NWZ3 whole entry, looked up): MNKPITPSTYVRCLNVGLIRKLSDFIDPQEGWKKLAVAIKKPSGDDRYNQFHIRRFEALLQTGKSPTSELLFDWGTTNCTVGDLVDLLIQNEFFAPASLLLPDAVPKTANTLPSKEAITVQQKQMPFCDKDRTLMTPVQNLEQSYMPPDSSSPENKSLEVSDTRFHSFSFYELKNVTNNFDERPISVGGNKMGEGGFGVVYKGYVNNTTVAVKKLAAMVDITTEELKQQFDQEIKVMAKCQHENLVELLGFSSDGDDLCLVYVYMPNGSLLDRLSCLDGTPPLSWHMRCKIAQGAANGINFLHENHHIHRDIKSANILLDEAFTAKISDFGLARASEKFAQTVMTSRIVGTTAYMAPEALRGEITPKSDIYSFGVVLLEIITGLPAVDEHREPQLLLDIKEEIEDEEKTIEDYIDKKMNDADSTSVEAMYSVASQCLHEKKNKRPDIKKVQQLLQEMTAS

FLT1 (human) = FLT1 (human) (UniProt P17948)
CSNK1D (human) = CSNK1D (human) (UniProt P48730)
JAK2 JH1 JH2 (human) = JAK2 JH1 JH2 (human) (UniProt O60674)
MAP3K14 (human) = MAP3K14 (human) (UniProt Q99558)
ABL1 (human) = ABL1 (human) (UniProt P00519)
INSRR (human) = INSRR (human) (UniProt P14616)
ERBB2 (human) = ERBB2 (human) (UniProt P04626)
NLK (human) = NLK (human) (UniProt Q9UBE8)
MLTK (human) = MLTK (human) (UniProt Q9NYL2)
MAPK9 (human) = MAPK9 (human) (UniProt P45984)
PRKCA (human) = PRKCA (human) (UniProt P17252)
MINK1 (human) = MINK1 (human) (UniProt Q8N4C8)
MKNK2 (human) = MKNK2 (human) (UniProt Q9HBH9)
ABL2 (human) = ABL2 (human) (UniProt P42684)
Sequence of ABL2 (human) (P42684 whole entry, looked up): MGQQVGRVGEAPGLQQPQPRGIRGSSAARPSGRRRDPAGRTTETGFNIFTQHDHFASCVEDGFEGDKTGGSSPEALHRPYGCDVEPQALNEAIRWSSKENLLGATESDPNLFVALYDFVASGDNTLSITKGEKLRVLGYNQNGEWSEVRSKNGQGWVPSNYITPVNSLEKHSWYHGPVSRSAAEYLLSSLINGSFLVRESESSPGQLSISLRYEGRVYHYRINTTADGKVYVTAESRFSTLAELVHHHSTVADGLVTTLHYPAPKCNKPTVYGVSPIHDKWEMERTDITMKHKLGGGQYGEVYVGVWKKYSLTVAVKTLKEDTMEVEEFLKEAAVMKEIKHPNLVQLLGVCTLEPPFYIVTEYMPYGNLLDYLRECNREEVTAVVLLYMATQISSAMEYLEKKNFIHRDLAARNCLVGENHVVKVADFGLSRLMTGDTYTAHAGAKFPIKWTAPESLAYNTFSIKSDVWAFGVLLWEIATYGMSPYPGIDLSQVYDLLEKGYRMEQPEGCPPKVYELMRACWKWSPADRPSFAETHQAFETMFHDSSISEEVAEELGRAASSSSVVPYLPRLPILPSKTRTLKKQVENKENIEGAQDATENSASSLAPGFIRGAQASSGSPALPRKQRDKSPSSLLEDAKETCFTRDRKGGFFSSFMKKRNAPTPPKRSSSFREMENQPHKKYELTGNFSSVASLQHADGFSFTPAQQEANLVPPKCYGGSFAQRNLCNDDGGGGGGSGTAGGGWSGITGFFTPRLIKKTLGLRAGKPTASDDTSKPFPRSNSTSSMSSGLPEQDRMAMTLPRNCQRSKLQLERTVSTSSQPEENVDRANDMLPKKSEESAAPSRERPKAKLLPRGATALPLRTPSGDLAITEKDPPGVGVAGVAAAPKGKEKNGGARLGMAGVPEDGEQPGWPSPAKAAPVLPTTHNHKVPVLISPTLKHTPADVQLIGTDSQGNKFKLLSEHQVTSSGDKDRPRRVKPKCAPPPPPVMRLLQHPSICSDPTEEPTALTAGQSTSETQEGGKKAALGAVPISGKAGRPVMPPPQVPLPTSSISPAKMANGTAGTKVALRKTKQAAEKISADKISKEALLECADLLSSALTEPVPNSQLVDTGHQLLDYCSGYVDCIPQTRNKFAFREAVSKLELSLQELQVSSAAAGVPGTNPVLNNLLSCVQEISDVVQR

IGF1R (human) = IGF1R (human) (UniProt P08069)
CDK9 CCNK (human) = CDK9 CCNK (human) (UniProt O75909+P50750)
PHKG2 (human) = PHKG2 (human) (UniProt P15735)
PRKX (human) = PRKX (human) (UniProt P51817)
CLK3 (human) = CLK3 (human) (UniProt P49761)
Sequence of CLK3 (human) (P49761 whole entry, looked up): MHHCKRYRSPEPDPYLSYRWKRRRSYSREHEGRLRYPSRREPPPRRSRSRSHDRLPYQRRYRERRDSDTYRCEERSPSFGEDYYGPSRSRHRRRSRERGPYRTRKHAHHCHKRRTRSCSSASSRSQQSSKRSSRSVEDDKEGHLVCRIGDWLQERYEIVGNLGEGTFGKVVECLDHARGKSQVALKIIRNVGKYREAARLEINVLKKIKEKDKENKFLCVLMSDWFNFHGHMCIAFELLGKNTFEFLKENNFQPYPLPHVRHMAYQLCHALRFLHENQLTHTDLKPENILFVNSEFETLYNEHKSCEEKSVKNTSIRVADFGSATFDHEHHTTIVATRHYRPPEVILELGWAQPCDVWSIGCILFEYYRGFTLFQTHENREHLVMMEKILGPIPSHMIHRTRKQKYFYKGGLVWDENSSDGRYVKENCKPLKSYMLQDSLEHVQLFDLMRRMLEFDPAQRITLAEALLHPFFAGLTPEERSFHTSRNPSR

DSTYK (human) = DSTYK (human) (UniProt Q6XUX3)
CSNK1E (human) = CSNK1E (human) (UniProt P49674)
CSK (human) = CSK (human) (UniProt P41240)
PKN1 (human) = PKN1 (human) (UniProt Q16512)
SYK (human) = SYK (human) (UniProt P43405)
MARK3 (human) = MARK3 (human) (UniProt P27448)
CDK5 CDK5R1 p25 (human) = CDK5 CDK5R1 p25 (human) (UniProt Q00535+Q15078)
Sequence of CDK5 CDK5R1 p25 (human) (Q00535 whole entry, looked up): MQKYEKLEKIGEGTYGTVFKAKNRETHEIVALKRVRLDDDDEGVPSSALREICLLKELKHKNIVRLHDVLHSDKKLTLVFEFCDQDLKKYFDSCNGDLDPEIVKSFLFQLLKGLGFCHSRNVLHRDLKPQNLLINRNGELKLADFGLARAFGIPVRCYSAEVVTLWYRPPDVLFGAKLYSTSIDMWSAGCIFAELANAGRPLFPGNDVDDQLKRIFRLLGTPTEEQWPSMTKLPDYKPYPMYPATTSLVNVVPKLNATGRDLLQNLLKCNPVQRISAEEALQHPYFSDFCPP
Sequence of CDK5 CDK5R1 p25 (human) (Q15078 whole entry, looked up): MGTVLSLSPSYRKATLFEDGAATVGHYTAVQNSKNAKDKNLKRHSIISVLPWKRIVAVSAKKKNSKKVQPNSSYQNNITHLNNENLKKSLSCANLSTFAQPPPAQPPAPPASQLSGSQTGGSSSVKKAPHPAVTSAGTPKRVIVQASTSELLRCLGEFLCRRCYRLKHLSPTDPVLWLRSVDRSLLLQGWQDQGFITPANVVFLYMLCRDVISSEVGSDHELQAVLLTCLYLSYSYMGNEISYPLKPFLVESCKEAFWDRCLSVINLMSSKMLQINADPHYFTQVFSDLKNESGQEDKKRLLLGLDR

HIPK3 (human) = HIPK3 (human) (UniProt Q9H422)
ULK2 (human) = ULK2 (human) (UniProt Q8IYT8)
MAPKAPK3 (human) = MAPKAPK3 (human) (UniProt Q16644)
Sequence of MAPKAPK3 (human) (Q16644 whole entry, looked up): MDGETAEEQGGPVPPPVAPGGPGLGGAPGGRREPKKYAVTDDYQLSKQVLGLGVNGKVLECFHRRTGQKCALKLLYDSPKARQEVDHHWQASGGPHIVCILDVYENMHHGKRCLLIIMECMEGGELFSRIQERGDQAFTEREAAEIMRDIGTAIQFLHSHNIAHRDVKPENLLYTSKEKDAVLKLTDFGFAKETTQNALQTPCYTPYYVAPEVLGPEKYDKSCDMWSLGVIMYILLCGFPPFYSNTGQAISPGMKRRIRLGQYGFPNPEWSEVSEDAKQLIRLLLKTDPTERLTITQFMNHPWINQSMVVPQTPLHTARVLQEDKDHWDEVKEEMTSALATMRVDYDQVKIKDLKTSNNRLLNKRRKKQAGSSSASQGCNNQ

MAP3K2 (human) = MAP3K2 (human) (UniProt Q9Y2U5)
PRKG1 (human) = PRKG1 (human) (UniProt Q13976)
Sequence of PRKG1 (human) (Q13976 whole entry, looked up): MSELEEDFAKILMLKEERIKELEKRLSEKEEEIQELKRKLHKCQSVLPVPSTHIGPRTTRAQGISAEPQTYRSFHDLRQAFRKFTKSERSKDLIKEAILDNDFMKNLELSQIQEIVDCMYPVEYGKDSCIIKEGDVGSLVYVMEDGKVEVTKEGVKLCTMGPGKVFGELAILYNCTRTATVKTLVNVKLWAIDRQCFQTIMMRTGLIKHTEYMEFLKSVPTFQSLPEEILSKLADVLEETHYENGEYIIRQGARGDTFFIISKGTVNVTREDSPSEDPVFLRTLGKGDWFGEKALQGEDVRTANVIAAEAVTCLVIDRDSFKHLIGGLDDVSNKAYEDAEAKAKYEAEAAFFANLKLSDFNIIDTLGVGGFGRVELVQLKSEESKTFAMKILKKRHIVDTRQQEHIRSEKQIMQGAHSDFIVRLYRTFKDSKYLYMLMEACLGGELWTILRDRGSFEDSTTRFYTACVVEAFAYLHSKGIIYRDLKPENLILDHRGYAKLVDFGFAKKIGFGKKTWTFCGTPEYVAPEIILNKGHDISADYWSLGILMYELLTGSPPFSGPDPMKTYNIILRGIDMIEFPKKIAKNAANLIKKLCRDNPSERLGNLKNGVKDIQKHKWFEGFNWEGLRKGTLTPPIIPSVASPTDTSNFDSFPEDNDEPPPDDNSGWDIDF

EPHA7 (human) = EPHA7 (human) (UniProt Q15375)
MST4 (human) = MST4 (human) (UniProt Q9P289)
NEK6 (human) = NEK6 (human) (UniProt Q9HC98)
Sequence of NEK6 (human) (Q9HC98 whole entry, looked up): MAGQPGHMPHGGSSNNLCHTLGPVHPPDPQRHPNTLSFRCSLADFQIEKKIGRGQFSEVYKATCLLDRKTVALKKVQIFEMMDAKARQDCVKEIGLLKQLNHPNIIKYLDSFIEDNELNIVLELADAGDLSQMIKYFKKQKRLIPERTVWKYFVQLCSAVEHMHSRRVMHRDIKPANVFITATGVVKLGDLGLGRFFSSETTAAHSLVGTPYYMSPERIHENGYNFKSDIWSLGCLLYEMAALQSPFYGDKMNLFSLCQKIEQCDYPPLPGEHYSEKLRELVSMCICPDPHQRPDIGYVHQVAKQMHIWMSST

BRSK1 (human) = BRSK1 (human) (UniProt Q8TDC3)
PAK7 (human) = PAK7 (human) (UniProt Q9P286)
CAMKK2 (human) = CAMKK2 (human) (UniProt Q96RR4)
DYRK1B (human) = DYRK1B (human) (UniProt Q9Y463)
FES (human) = FES (human) (UniProt P07332)
Sequence of FES (human) (P07332 whole entry, looked up): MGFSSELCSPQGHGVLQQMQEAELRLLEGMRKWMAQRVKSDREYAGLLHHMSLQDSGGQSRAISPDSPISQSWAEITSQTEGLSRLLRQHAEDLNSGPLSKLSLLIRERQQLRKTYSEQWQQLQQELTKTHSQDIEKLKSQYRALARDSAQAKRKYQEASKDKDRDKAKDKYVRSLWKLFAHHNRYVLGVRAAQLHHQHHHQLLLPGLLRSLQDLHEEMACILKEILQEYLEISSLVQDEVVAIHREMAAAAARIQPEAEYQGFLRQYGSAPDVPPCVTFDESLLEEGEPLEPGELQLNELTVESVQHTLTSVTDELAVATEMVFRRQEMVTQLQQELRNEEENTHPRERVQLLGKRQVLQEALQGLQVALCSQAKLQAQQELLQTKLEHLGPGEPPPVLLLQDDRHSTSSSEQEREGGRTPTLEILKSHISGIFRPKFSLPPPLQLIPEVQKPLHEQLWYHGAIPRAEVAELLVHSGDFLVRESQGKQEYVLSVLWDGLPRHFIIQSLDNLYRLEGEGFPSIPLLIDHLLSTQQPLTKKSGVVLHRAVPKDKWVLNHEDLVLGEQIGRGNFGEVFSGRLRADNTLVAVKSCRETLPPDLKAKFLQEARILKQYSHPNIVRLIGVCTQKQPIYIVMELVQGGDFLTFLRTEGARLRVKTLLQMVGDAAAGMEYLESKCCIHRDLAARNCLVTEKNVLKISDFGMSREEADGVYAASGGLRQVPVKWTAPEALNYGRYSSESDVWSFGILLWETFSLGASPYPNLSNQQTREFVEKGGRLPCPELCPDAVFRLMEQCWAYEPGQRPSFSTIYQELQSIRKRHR

O=c1c2ccccc2[nH]c(=S)n1CCN1CCC(=C(c2ccc(F)cc2)c2ccc(F)cc2)CC1
residual activity (SRPK3 (human)): 102%
residual activity (EPHB2 (human)): 92.1%
residual activity (IRAK4 (human)): 105%
residual activity (FLT1 (human)): 95.2%
residual activity (CSNK1D (human)): 100%
residual activity (JAK2 JH1 JH2 (human)): 92%
residual activity (MAP3K14 (human)): 75.7%
residual activity (ABL1 (human)): 106%
residual activity (INSRR (human)): 98.3%
residual activity (ERBB2 (human)): 98.8%
residual activity (NLK (human)): 99.5%
residual activity (MLTK (human)): 98.6%
residual activity (MAPK9 (human)): 97%
residual activity (PRKCA (human)): 73.1%
residual activity (MINK1 (human)): 94.4%
residual activity (MKNK2 (human)): 89.5%
residual activity (ABL2 (human)): 103%
residual activity (IGF1R (human)): 105%
residual activity (CDK9 CCNK (human)): 104%
residual activity (PHKG2 (human)): 100%
residual activity (PRKX (human)): 106%
residual activity (CLK3 (human)): 101%
residual activity (DSTYK (human)): 86.5%
residual activity (CSNK1E (human)): 100%
residual activity (CSK (human)): 119%
residual activity (PKN1 (human)): 103%
residual activity (SYK (human)): 93.2%
residual activity (MARK3 (human)): 107%
residual activity (CDK5 CDK5R1 p25 (human)): 93.5%
residual activity (HIPK3 (human)): 97.7%
residual activity (ULK2 (human)): 96.5%
residual activity (MAPKAPK3 (human)): 109%
residual activity (MAP3K2 (human)): 99.6%
residual activity (PRKG1 (human)): 102% and 95.7%
residual activity (EPHA7 (human)): 96.9%
residual activity (MST4 (human)): 91.6%
residual activity (NEK6 (human)): 96.2%
residual activity (BRSK1 (human)): 98.3%
residual activity (PAK7 (human)): 97.4%
residual activity (CAMKK2 (human)): 100%
residual activity (DYRK1B (human)): 97.1%
residual activity (FES (human)): 94.9%

O=C1NC(=O)c2cc(Nc3ccc(F)cc3)c(Nc3ccc(F)cc3)cc21
residual activity (SRPK3 (human)): 98%
residual activity (EPHB2 (human)): 89.3%
residual activity (IRAK4 (human)): 98.1%
residual activity (FLT1 (human)): 81.5%
residual activity (CSNK1D (human)): 109%
residual activity (JAK2 JH1 JH2 (human)): 94.6%
residual activity (MAP3K14 (human)): 117%
residual activity (ABL1 (human)): 95.7%
residual activity (INSRR (human)): 111%
residual activity (ERBB2 (human)): 107%
residual activity (NLK (human)): 103%
residual activity (MLTK (human)): 94.5%
residual activity (MAPK9 (human)): 61.4%
residual activity (PRKCA (human)): 99.3%
residual activity (MINK1 (human)): 99%
residual activity (MKNK2 (human)): 101%
residual activity (ABL2 (human)): 89.6%
residual activity (IGF1R (human)): 102%
residual activity (CDK9 CCNK (human)): 90.8%
residual activity (PHKG2 (human)): 97.1%
residual activity (PRKX (human)): 103%
residual activity (CLK3 (human)): 93.7%
residual activity (DSTYK (human)): 95.6%
residual activity (CSNK1E (human)): 98%
residual activity (CSK (human)): 92%
residual activity (PKN1 (human)): 97.7%
residual activity (SYK (human)): 98.8%
residual activity (MARK3 (human)): 90.8%
residual activity (CDK5 CDK5R1 p25 (human)): 85.9%
residual activity (HIPK3 (human)): 95.3%
residual activity (ULK2 (human)): 84.7%
residual activity (MAPKAPK3 (human)): 95.9%
residual activity (MAP3K2 (human)): 94.8%
residual activity (PRKG1 (human)): 103% and 94.3%
residual activity (EPHA7 (human)): 84.6%
residual activity (MST4 (human)): 99%
residual activity (NEK6 (human)): 109%
residual activity (BRSK1 (human)): 94.3%
residual activity (PAK7 (human)): 96.4%
residual activity (CAMKK2 (human)): 88.3%
residual activity (DYRK1B (human)): 105%
residual activity (FES (human)): 99.5%
